{"source": "ChEMBL document CHEMBL5329203", "about": "“Target discovery of bioactive natural products with native-compound-coupled CNBr-activated Sepharose 4B beads (NCCB): Applications, mechanisms and outlooks” (Bioorg Med Chem, 2023)", "key": {"[1]": {"target": "T1, Latent membrane protein 1 (Human herpesvirus 4 (strain B95-8), UniProt P03230)", "T1 sequence (P03230 whole entry)": "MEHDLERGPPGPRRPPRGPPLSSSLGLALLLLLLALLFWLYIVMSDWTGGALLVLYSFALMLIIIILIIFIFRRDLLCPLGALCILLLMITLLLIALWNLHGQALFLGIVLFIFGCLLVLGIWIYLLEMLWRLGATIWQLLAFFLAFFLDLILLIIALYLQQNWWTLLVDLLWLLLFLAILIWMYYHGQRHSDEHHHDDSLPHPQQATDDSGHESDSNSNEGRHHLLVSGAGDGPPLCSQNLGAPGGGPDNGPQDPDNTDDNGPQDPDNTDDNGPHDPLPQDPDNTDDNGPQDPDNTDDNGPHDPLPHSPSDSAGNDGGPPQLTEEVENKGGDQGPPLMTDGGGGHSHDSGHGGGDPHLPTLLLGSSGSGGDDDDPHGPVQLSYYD", "assay": "Binding affinity to Epstein Barr virus LMP1 assessed as dissociation constant", "parameters": "species or system human gammaherpesvirus 4"}, "[2]": {"target": "Small ribosomal subunit protein uS2 (Homo sapiens, UniProt P08865)", "assay": "Binding affinity to His-tagged Laminin receptor in human A549 cells assessed as dissociation constant by surface plasmon resonance assay"}, "[3]": {"target": "Tyrosine-protein kinase Fyn (Homo sapiens, UniProt P06241)", "sequence (P06241 whole entry)": "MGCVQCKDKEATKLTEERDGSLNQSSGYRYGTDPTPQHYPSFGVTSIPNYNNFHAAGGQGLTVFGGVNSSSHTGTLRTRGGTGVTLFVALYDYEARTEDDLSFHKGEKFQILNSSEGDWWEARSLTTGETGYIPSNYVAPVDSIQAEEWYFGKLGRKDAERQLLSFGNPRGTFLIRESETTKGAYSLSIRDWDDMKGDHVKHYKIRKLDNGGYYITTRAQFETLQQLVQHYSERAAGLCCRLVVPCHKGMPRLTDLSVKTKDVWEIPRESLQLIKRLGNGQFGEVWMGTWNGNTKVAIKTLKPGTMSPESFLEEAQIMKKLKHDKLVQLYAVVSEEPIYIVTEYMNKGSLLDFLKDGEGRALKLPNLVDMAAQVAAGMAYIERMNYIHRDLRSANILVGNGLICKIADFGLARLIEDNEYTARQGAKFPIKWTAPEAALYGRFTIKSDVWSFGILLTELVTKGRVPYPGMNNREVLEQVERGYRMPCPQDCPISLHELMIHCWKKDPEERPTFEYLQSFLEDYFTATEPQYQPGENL", "assay": "Binding affinity to Fyn (unknown origin) assessed as dissociation constant"}}, "data": [{"smiles": "O=C(O[C@@H]1Cc2c(O)cc(O)cc2O[C@@H]1c1cc(O)c(O)c(O)c1)c1cc(O)c(O)c(O)c1", "note": "[EPIGALOCATECHIN GALLATE]", "values": [{"measurement": "Kd", "setting": "[1]", "value": 360, "unit": "nM"}, {"measurement": "Kd", "setting": "[2]", "value": 39.9, "unit": "nM"}, {"measurement": "Kd", "setting": "[3]", "value": 367, "unit": "nM"}]}]}
